According to patent US9394519B2, “Methods to produce mast cell culture” (Apollonian Biosystems Limited, priority 2011, dated 2016):
Ends that are not written are not given here.

Tests used:
mast cell tryptase = experiment: Cell-based assay for screening tryptase inhibitors (MCP-1 degradation in medium of anti-IgE-stimulated mast cells); design: species or system human; details: for Inhibition of the degradation of MCP-1 in the reaction medium: 6-hour reaction medium of anti-IgE-stimulated mast cells incubated with inhibitor at 37° C. for 16 hours, FIG. 7
Method: Primary human mast cells with functional phenotype of connective tissue-type mast cells were derived from peripheral blood using the protocol described in Example 1. Cells were stimulated via the high-affinity IgE receptors (FcERI) using an anti-IgE antibody and kept under various conditions (see conditions A to G below) for 6 hours and 16 hours. The supernatants were then collected and the MCP-1 level in the supernatants was determined.

human mast cells [1] = experiment: Inhibition of IgE-dependent degranulation (histamine release in response to anti-IgE); assay type: cell-based; details: IgE-sensitized human mast cells challenged with anti-IgE; FIG. 5
Method: Cultured mast cells at week 6, week 9 and week 12 were harvested, counted and seeded into 24-well plates in complete IMDM with 100 ng/ml SCF and 50 ng/ml IL-6. • IgE-dependent activation: Human mast cells were first sensitized by 0.5 μg/ml human myeloma IgE (Merck) in culture medium overnight. Unbound IgE was then removed by washing once with PBS. The cells were then resuspended in full HEPES buffer (FHB: 137 mM NaCl, 5.56 mM glucose, 12 mM HEPES, 2.7 mM KCl, 0.4 mM NaH2PO4 and 1 mM CaCl2 at pH 7.4) supplemented with 0.03% human albumin (HA) (for release of histamine and PGD2) or in IMDM with 10% FBS (for release of IL-8). […] 3.b Histamine Release Histamine released into the reaction buffer and the remaining granular histamine in the pellets were collected and analyzed by using Bran+Luebbe Autoanalyzer (AAIII Autoanalyzer, Bran+Luebbe, Germany) which chemically extracted histamine from the samples as described by Siraganian (Siraganian, R. P. 1974, Analytical Biochemistry 57(2): 383-394). […] For all stimulation studies, histamine released into the supernatant was expressed as a percentage of total cellular histamine content and all histamine release values were corrected for the spontaneous histamine release in buffer alone.

human mast cells [2] = experiment: Mast cell activation: release of histamine, PGD2 and IL-8 in response to stimuli; assay type: cell-based; details: human mast cells generated in Example 1, cultured 6 weeks or more; FIGS. 1-4
Method: To validate that the human mast cell cultures are functionally responsive, the release of histamine, prostaglandin D2 (PGD2) and interleukin-8 (IL-8) in response to stimulations by anti-IgE, aggregated IgG1, Toll-like receptor ligands, Substance P, compound 48/80 and ionophores was measured.
Cultured mast cells at week 6, week 9 and week 12 were harvested, counted and seeded into 24-well plates in complete IMDM with 100 ng/ml SCF and 50 ng/ml IL-6. • IgE-dependent activation: Human mast cells were first sensitized by 0.5 μg/ml human myeloma IgE (Merck) in culture medium overnight. Unbound IgE was then removed by washing once with PBS. […]
Histamine released into the reaction buffer and the remaining granular histamine in the pellets were collected and analyzed by using Bran+Luebbe Autoanalyzer (AAIII Autoanalyzer, Bran+Luebbe, Germany) which chemically extracted histamine from the samples as described by Siraganian (Siraganian, R. P. 1974, Analytical Biochemistry 57(2): 383-394). […] For all stimulation studies, histamine released into the supernatant was expressed as a percentage of total cellular histamine content and all histamine release values were corrected for the spontaneous histamine release in buffer alone. […]

NC(=O)[C@@H]1CCCN1C(=O)[C@H](CCCN=C(N)N)NC(=O)c1ccc2ccccc2c1O [APC366]
MCP-1 level relative to condition A (peak MCP-1 level at the 6th hour after stimulation) (mast cell tryptase; inhibitor added at 6th hour, 16 hours at 37° C., FIG. 8): approximate the same

CC(C)C[C@H](NC(=O)[C@@H](O)[C@H](N)Cc1ccccc1)C(=O)O [Bestatin]
Inhibition of the degradation of MCP-1 in the reaction medium (mast cell tryptase): not

CC(C)C[C@H](NC(=O)[C@@H](NC(=O)N[C@@H](Cc1ccccc1)C(=O)O)[C@@H]1CCN=C(N)N1)C(=O)N[C@H](C=O)Cc1ccccc1 [Chymostatin]
Inhibition of the degradation of MCP-1 in the reaction medium (mast cell tryptase): not

CC(C)(C)NCC(O)c1ccc(O)c(CO)c1 (centres unmarked) [Salbutamol]
Inhibition of IgE-dependent degranulation (histamine release) (human mast cells [1]): can be inhibited

Substance P (RPKPQQFFGLM; ends and bridges not checked; UniProt P20366 58-68, looked up)
Release of histamine, PGD2 and IL-8 in response to stimulation (human mast cells [2]): Release of histamine, PGD2 and IL-8 was observed
